Measurements as given in patent publication EP0882010B1, “PHARMACEUTICAL AGENTS CONTAINING PERFLUOROALKYL-CONTAINING METAL COMPLEXES AND THE USE THEREOF IN TUMOUR THERAPY AND INTERVENTIONAL RADIOLOGY” (SCHERING AKTIENGESELLSCHAFT, priority 1996, dated 1997).
Entries after “also recorded” stand apart in the source; their conditions may differ. Read-outs that look alike come from different tables or passages of the source.

How the values were obtained:
[1] = T1 relaxivity at 20 MHz, 37°C; format: physicochemical
Experimental: c) Gadolinium-Komplex von 10-[2-Hydroxy-4-aza-5-oxo-7-aza-7-(perfluoroctylsulfonyl)-nonyl]-1,4,7-tris(carboxymethyl)-1,4,7,10-tetraazacyclododecan 10 g (17,09 mmol) der Titelverbindung aus Beispiel 1b) und […] (18,79 mmol) N-Hydroxysuccinimid werden in einer Mischung aus 50 ml Dimethylformamid/50 ml Chloroform gelöst. Bei 0°C gibt man 3,88 g (18,79 mmol) Dicyclohexylcarbodiimid zu und rührt 1 Stunde bei 0°C, anschließend 3 Stunden bei Raumtemperatur. Man kühlt erneut auf 0°C und gibt 5,19 g (51,27 mmol) Triethylamin/50 ml 2-Propanol zu. Anschließend werden 10,78 g (18,79 mmol) Gadolinium-Komplex von 10-(3-Amino-2-hydroxy-propyl)-1,4,7-tris(carboxymethyl)-1,4,7,10-tetraazacyclododecan (WO 95/17451) gelöst in 50 ml Wasser zugegeben und 3 Stunden bei Raumtemperatur gerührt. Man dampft zur Trockne ein, nimmt den Rückstand in einer Mischung aus 200 ml Methanol/100 ml Chloroform auf und filtriert vom Dicyclohexylharnstoff ab. Das Filtrat wird zur Trockne eingedampft und durch RP-Chromatographie gereinigt (RP-18/Laufmittel: Gradient aus Wasser/n-Propanol/ Acetonitril). Ausbeute: 16,37 g (78 % d. Th.) eines farblosen glasigen Feststoffes Wassergehalt: 7,1 % T1-Relaxivität (L/mmol·sec) bei 20 MHz, 37°C: 41 (Wasser) 49 (Humanplasma)
e) Mangan-Komplex von 10-[2-Hydroxy-4-aza-5-oxo-7-aza-7-(perfluoroctylsulfonyl)-nonyl]-1,4,7-tris(carboxymethyl)-1,4,7,10-tetraazacyclododecan (als Natriumsalz) 5 g (5,07 mmol) der Titelverbindung aus Beispiel ld) werden in 100 ml Wasser gelöst und 0,58 g (5,07 mmol) Mangan(II) -carbonat zugegeben. Man rührt3 Stunden bei 80°C. Die Lösung wird filtriert und das Filtrat mit 1 N Natronlauge auf pH 7,2 gestellt, anschließend wird gefriergetrocknet. Ausbeute: 5,87 g (quantitativ) eines farblosen amorphen Pulvers Wassergehalt: 8,4 % T1-Relaxivität (L/mmol·sec) bei 20 MHz, 37°C: 2,7 (Wasser) 4,2 (Humanplasma)
c) Gadolinium-Komplex von 10-[2-Hydroxy-4-aza-5-oxo-7-oxa-10,10,11,11,12,12,13,13,14,14,15,15,16,16,17,17,17-heptadecafluor-heptadecyl]-1,4,7-tris(carboxymethyl)-1,4,7,10-tetraazacyclododecan 7,0 g (13,41 mmol) der Titelverbindung aus Beispiel 2b) und 1,70 g (14,75 mmol) N-Hydroxysuccinimid werden in einer Mischung aus 30 ml Dimethylformamid/ 20 ml Chloroform gelöst. Bei 0°C gibt man 3,04 g (14,75 mmol) Dicyclohexylcarbodiimid zu und rührt 1 Stunde bei 0°C, anschließend 3 Stunden bei Raumtemperatur. Man kühlt erneut auf 0°C und gibt 4,48 g (44,25 mmol) Triethylamin/50 ml 2-Propanol zu. Anschließend werden 8,46 g (14,75 mmol) Gadolinium-Komplex von 10-(3-Amino-2-hydroxy-propyl)-1,4,7-tris(carboxymethyl)-1,4,7,10-tetraazacyclododecan gelöst in 40 ml Wasser zugegeben und 3 Stunden bei Raumtemperatur gerührt. Man dampft zur Trockne ein, nimmt den Rückstand in einer Mischung aus 100 ml Methanol/30 ml Chloroform auf und filtriert vom Dicyclohexylharnstoff ab. Das Filtrat wird zur Trockne eingedampft und durch RP-Chromatographie gereinigt (RP-18/Laufmittel: Gradient aus Wasser/n-Propanol/Acetonitril). Ausbeute: 11,8 g (75 % d. Th.) eines farblosen glasigen Feststoffes Wassergehalt: 8,2 % T1-Relaxivität (L/mmol·sec) bei 20 MHz, 37°C: 19 (Wasser) 33 (Humanplasma)
c) Gadolinium-Komplex von 10-[-2Hydroxy-4-oxa-1H,1H,2H,3H,3H,5H,5H,6H,6H-perfluor-tetradecyl]-1,4,7-tris(carboxymethyl)-1,4,7,10-tetraazacyclododecan 10 g (11,54 mmol) der Titelverbindung aus Beispiel 3b) werden in einer Mischung aus 100 ml Wasser/50 ml 2-Propanol gelöst und 2,09 g (5,77 mmol) Gadoliniumoxid zugegeben. Man rührt 3 Stunden bei 80°C. Die Lösung wird filtriert und im Vakuum zur Trockne eingedampft. Ausbeute: 12,48 g (quantitativ) eines glasigen Feststoffes Wassergehalt: 5,6 % T1-Relaxivität (L/mmol·sec) bei 20 MHz, 37°C: 15,2 (Wasser) 27,5 (Humanplasma)

[2] = test system: VX-2 Tumorzellen; test: Therapy of a liver carcinoma in the rabbit (chemoembolisation, MRI control); format: in vivo, Chinchilla-Kaninchen; conditions: rabbit VX-2 liver tumour, 75 mmol/l solution with 50 mg Cisplatin, 8 ml via catheter, MRI after 7 days; control animals 3,7 ± 1,5
Experimental: Fünf männlichen Chinchilla-Kaninchen wurde durch Injektion von VX-2 Tumorzellen in den linken Leberlappen ein Tumor gesetzt. Dem narkotisiertem Tier wurde ein Katheter (60 cm lang, 1 mm Øa) über die Arteria femoralis bis in die Nähe des Tumors vorgeschoben. Dann wurde eine Lösung der Titelverbindung aus Beispiel 1 c [75 mmol/l mit 50 mg Cisplatin (=[…]) appliziert. Gesamtvolumen 8 ml.
Anschließend wurde der Katheter entfernt. Nach 7 Tagen wurden die Tiere mittels MRI untersucht. Es zeigte sich, daß der Tumor sich in seiner Größe verringert hat (durchschnittlicher Wachstumsfaktor 0,8 ± 0,2). Bei den Kontrolltieren (3 Tiere) wurden jedoch Wachstumsraten von 3,7 ± 1,5 beobachtet.

[3] = for Konsistenz mit Zusatz von Harnstoff: 8 mol/L Harnstoff (final), also at substance concentration 400 mmol/L; for Löslichkeit in 96% Ethanol / Löslichkeit in 66% DMSO/Wasser / Löslichkeit in 66% Propylenglycol/Wasser: free-flowing solution; for Löslichkeit in Rinderplasma: solution of comparable consistency; for Einfluß auf die Konsistenz der Zubereitung: addition of 10 mmol/L HCl or NaOH, or 3 mol/L NaCl; for Veränderung der Konsistenz durch Triton X-100 / Veränderung der Konsistenz durch Tween 80: aqueous formulation; for Veränderung der Konsistenz durch Triton X-100: Triton X-100, 1.7%; for Veränderung der Konsistenz durch Tween 80: Tween 80, 4.6% final concentration; for Löslichkeit in 66% DMSO/Wasser / Löslichkeit in 66% Propylenglycol/Wasser: gut löslich at this concentration; for concentration below which a frei fließende Lösung results: in water, printed as 'Unterhalb von etwa'; for Löslichkeit in reinem DMSO: pure DMSO; for Löslichkeit in reinem Propylenglycol: pure Propylenglycol
[4] = test system: Lebergefäße am Kaninchen; test: Embolisation of the liver vessels in the rabbit, followed by X-ray; format: in vivo
Experimental: Als gut darstellbare Gefäße wurden die Lebergefäße am Kaninchen embolisiert.
Dem narkotisierten Tier wurde ein Katheter (60 cm lang, 1,5 mm Øa) über die A. femoralis bis in die Leberarterie durch die Aorta vorgeschoben. Die Lösung von Gadoliniumkomplex aus Beispiel 1c) (50 mmol/L mit 150 mg J/ml Isovist ®) wurde mit 160 µL/min appliziert. Gesamtvolumen 800 µL. Anschließend wurde der Katheter in die Aorta zurückgezogen, um die arterielle Blutversorgung der Leber im weiteren Verlauf nicht zu beeinträchtigen. […] Zum Teil ist die Abnahme der Signalintensität auf ein Herausdiffündieren des Röntgenkontrastmittels Isovist ® zurückzuführen.

[5] = test system: Nierengefäße der Ratte; test: Embolisation of the renal vessels in the rat, followed by X-ray; format: in vivo
Experimental: Als gut darstellbare Gefäße wurden die Nierengefäße der Ratte embolisiert.
Dem Tier wurde ein Katheter (20 cm lang, 0,58 mm Øi in die A. mesentrerica eingebunden und in die A. renalis der linken Niere vorgeschoben. Die Lösung der Verbindung aus Beispiel 1 c) (hier 50 mmol/1 mit 150 mg J/ml Isovist ®) wurde mit 160 µl/min appliziert. Gesamtvolumen 250 µl. Anschließend wurde der Katheter in die A. mesenterica zurückgezogen, um die Blutversorgung der Nieren im weiteren Verlauf nicht zu beinträchtigen. […] Zur Kontrolle der Nierendurchblutung wurde 1 Stunde nach der lokalen Applikation der Verbindung aus Beispiel lc) 400 µl des nierengängigen Röntgenkontrastmittels Ultravist ® 300 mg J/ml i.v. in die Schwanzvene gegeben.
Direkt nach intraarterieller, lokaler Gabe von 250 µl einer Lösung der Verbindung aus Beispiel 1 c) (50 mmol/L + 150 mg J/ml Isovist ® )in die katherisierte Nierenarterie (linke Niere, im Bild rechts)
5' p.a. Ultravist ®, 400 µl i.v. 1 Stunde nach lokaler Gabe der Verbindung aus Beispiel 1c) wurde Ultravist ® über die Schwanzvene gegeben.

[6] = 100 mmol/L in water, by hand or infusion pump through a 20 cm, 0.58 mm Øi tube at 160 µL/min

Structure (SMILES)	T1-Relaxivität ([1]; Humanplasma)	T1-Relaxivität ([1]; Wasser)	Applizierbarkeit der Lösung [3, 6]	Konsistenz der Lösung ([3]; 100 mmol/L solution in water)	Konsistenz mit Zusatz von Harnstoff [3]	Löslichkeit in 96% Ethanol [3]	Löslichkeit in Rinderplasma [3]	Einfluß auf die Konsistenz der Zubereitung [3]	Veränderung der Konsistenz durch Triton X-100 [3]	Veränderung der Konsistenz durch Tween 80 [3]	Löslichkeit in 66% DMSO/Wasser [3]	Löslichkeit in 66% Propylenglycol/Wasser [3]	concentration below which a frei fließende Lösung results [3]	Löslichkeit in reinem DMSO [3]	Löslichkeit in reinem Propylenglycol [3]	further results
O=C([O-])CN1CCN(CC(=O)[O-])CCN(CC(O)CNC(=O)COCCC(F)(F)C(F)(F)C(F)(F)C(F)(F)C(F)(F)C(F)(F)C(F)(F)C(F)(F)F)CCN(CC(=O)[O-])CC1.[Gd+3] (stereo not drawn) [2c), Gadolinium-Komplex von 10-[2-Hydroxy-4-aza-5-oxo-7-oxa-10,10,11,11,12,12,13,13,14,14,15,15,16,16,17,17,17-heptadecafluor-heptadecyl]-1,4,7-tris(carboxymethyl)-1,4,7,10-tetraazacyclododecan]	33 L/mmol/s	19 L/mmol/s														
CCN(CC(=O)NCC(O)CN1CCN(CC(=O)[O-])CCN(CC(=O)[O-])CCN(CC(=O)[O-])CC1)S(=O)(=O)C(F)(F)C(F)(F)C(F)(F)C(F)(F)C(F)(F)C(F)(F)C(F)(F)C(F)(F)F.[Gd+3] (stereo not drawn) [Beispiel 1c), Gadolinium-Komplex von 10-[2-Hydroxy-4-aza-5-oxo-7-aza-7-(perfluoroctylsulfonyl)-nonyl]-1,4,7-tris(carboxymethyl)-1,4,7,10-tetraazacyclododecan]	49 L/mmol/s	41 L/mmol/s	problemlos	klar durchsichtig und besitzt eine gelartig feste Konsistenz	frei fließende Lösung	> 500 mmol/L	ebenso löslich wie in reinem Wasser	keinen Einfluß auf die Konsistenz	Verflüssigung der gelartigen Konsistenz	keine Veränderung der Konsistenz	≥ 150 mmol/L	≥ 250 mmol/L	10000 to 20000 µM	praktisch unlöslich	praktisch unlöslich	durchschnittlicher Wachstumsfaktor des Tumors [2]: 0,8 ± 0,2; Applizierbarkeit der Lösung ([3]; 100 mmol/1 in water with 100 mg J/ml Isovist, 20 cm, 0,58 mm Øi tube at 160 µl/min): problemlos; Konsistenz der Lösung ([3]; 100 mmol/1 solution in water with 100 mg J/ml Isovist): klar durchsichtig und besitzt eine gelartig feste Konsistenz; Abgrenzung der Gefäße der Leber in Röntgenaufnahmen ([4]; 800 µL of 50 mmol/L solution with 150 mg J/ml Isovist into liver artery at 160 µL/min): scharf gegenüber dem Leberparenchym abgegrenzt; Signalintensität der Gefäße in der Leber ([4]; within 60 minutes after administration): nur langsam ab; Abgrenzung der Gefäße der linken Niere in Röntgenaufnahmen ([5]; 250 µl of 50 mmol/1 solution with 150 mg J/ml Isovist into A. renalis at 160 µl/min): scharf gegenüber dem Nierenparenchym abgegrenzt; Enhancement der embolisierten linken Niere und ihres Harnleiters ([5]; 400 µl Ultravist 300 mg J/ml i.v. 1 hour after local application, non-embolised right kidney enhanced): kein Enhancement; also recorded: bleibt dunkel; Signalintensität der Gefäße in der Niere ([5]; up to 45 minutes after administration, attributed to Isovist diffusing out): deutlich ab
CCN(CC(=O)NCC(O)CN1CCN(CC(=O)[O-])CCN(CC(=O)[O-])CCN(CC(=O)[O-])CC1)S(=O)(=O)C(F)(F)C(F)(F)C(F)(F)C(F)(F)C(F)(F)C(F)(F)C(F)(F)C(F)(F)F.[Mn+2].[Na+] (stereo not drawn) [Beispiel 1e), Mangan-Komplex von 10-[2-Hydroxy-4-aza-5-oxo-7-aza-7-(perfluoroctylsulfonyl)-nonyl]-1,4,7-tris(carboxymethyl)-1,4,7,10-tetraazacyclododecan (als Natriumsalz)]	4,2 L/mmol·sec	2,7 L/mmol·sec														
O=C([O-])CN1CCN(CC(=O)[O-])CCN(CC(O)COCCC(F)(F)C(F)(F)C(F)(F)C(F)(F)C(F)(F)C(F)(F)C(F)(F)C(F)(F)F)CCN(CC(=O)[O-])CC1.[Gd+3] (stereo not drawn) [3c), Gadolinium-Komplex von 10-[-2Hydroxy-4-oxa-1H,1H,2H,3H,3H,5H,5H,6H,6H-perfluor-tetradecyl]-1,4,7-tris(carboxymethyl)-1,4,7,10-tetraazacyclododecan]	27,5 L/mmol·sec	15,2 L/mmol·sec														
CCN(CCCCCCCCCCC(=O)NCC(O)CN1CCN(CC(=O)[O-])CCN(CC(=O)[O-])CCN(CC(=O)[O-])CC1)S(=O)(=O)C(F)(F)C(F)(F)C(F)(F)C(F)(F)C(F)(F)C(F)(F)C(F)(F)C(F)(F)F.[Dy+3] (stereo not drawn) [Beispiel 30f)]			problemlos	klar durchsichtig und besitzt eine gelartig feste Konsistenz	frei fließende Lösung	> 500 mmol/L	ebenso löslich wie in reinem Wasser	keinen Einfluß auf die Konsistenz	Verflüssigung der gelartigen Konsistenz	keine Veränderung der Konsistenz	≥ 150 mmol/L	≥ 250 mmol/L	10000 to 20000 µM	praktisch unlöslich	praktisch unlöslich	
